According to article PMC5515969, “Effects of 31 FDA approved small-molecule kinase inhibitors on isolated rat liver mitochondria” (Archives of Toxicology, 2016):
Read-outs that look alike come from different tables or passages of the source.

Columns and labels:
RCC III = RCC III activity in submitochondrial particles; type: biochemical, rat; design: key to RCC III at 100XCmax: activity relative to DMSO-treated controls (control set as 1 = 100%); conditions: 100XCmax; relative to DMSO treated samples
Method in brief: (§1)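 Absorbance kinetics: A340 (RCC I, V) and A600 (RCC II) read each minute over 6 min, A550 (RCC III, IV) every 10 s over 2 min; RCC I taken as […]. Particles (1 mg/ml) pretreated 15 min with compound; DMSO-treated activity = 1.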

[1] = test system: isolated rat liver mitochondria; experiment: Mitochondrial inner membrane potential (MMP), Rhodamine 123; type: biochemical; conditions: difference in signal between KI and DMSO treated samples at the end of experiments
From the text: Fig. 3 KI effects on mitochondrial inner membrane potential (MMP). […] In a, c, data are means and standard derivations from three separate experiments. *p < 0.05 as compared to DMSO-treated samples at the end of experiments. In b, data are means of two independent experiments

[2] = cited from earlier work
[3] = test system: isolated rat liver mitochondria; experiment: Mitochondrial swelling (absorbance at 535 nm); type: biochemical; conditions: difference in signal between KI and DMSO treated samples at the end of experiments; on Swelling 5XCmax: key: 0 indicates that the drug had no effects (negative)
[4] = test system: isolated rat liver mitochondria; experiment: Mitochondrial oxygen consumption (glutamate/malate or succinate driven, state 4 and state 3); type: biochemical; conditions: DMSO treated samples set as 1; on State 3 respiration driven by succinate at 10XCmax: key: 0 indicates that the drug had no effects (negative); on State 3 respiration driven by succinate at 1XCmax: key: 0 indicates that the drug had no effects (negative)
Method in brief: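 Oxygen uptake on glutamate/malate or on succinate defined state 4; ADP added 3 min later gave state 3. Mitochondria isolated from rat liver by differential centrifugation, adjusted to 1 mg/ml and pretreated 5 min with inhibitor (0.1% DMSO final). Values relative to DMSO control, set to 1.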

[5] = cited from earlier work; remark: listed apart in the source
[6] = test system: isolated rat liver mitochondria; conditions: positive control alamethicin treated samples
RCC IV = RCC IV activity in submitochondrial particles; type: biochemical, rat; design: key to RCC IV at 50XCmax / RCC IV at 100XCmax: activity relative to DMSO-treated controls (control set as 1 = 100%); conditions: 50XCmax; relative to DMSO treated samples; in %
Method in brief: as §1

[7] = test system: isolated rat liver mitochondria; experiment: Mitochondrial ROS production (CM-H2DCFDA); conditions: DMSO treated samples set as 1

## CNC(=O)c1ccccc1Sc1ccc2c(/C=C/c3ccccn3)n[nH]c2c1 [Axitinib]
RCC III
  RCC III at 100XCmax: 0
[1]; 1XCmax
  MMP measured by Rhodamine 123 at 1XCmax: 0
[1]; 2.5XCmax
  MMP measured by Rhodamine 123 at 2.5XCmax: 0
[1]; 5XCmax
  MMP measured by Rhodamine 123 at 5XCmax: 0
[1]; 10XCmax
  MMP measured by Rhodamine 123 at 10XCmax: 0
[1]; 20XCmax
  MMP measured by Rhodamine 123 at 20XCmax: 0
[1]; 30XCmax
  MMP measured by Rhodamine 123 at 30XCmax: 0
[1]; 50XCmax
  MMP measured by Rhodamine 123 at 50XCmax: 0
[1]; 100XCmax
  MMP measured by Rhodamine 123 at 100XCmax: 0
[2]; human therapeutic Cmax at FDA recommended dosages, ref product labeling and drug approval packages at the official FDA website
  Cmax: 70 nM
[2]; therapeutic maximal blood concentration, ref product labeling
  Cmax: 27.8 ng/mL
[3]; 1XCmax
  Swelling 1XCmax: 0
[3]; 2.5XCmax
  Swelling 2.5XCmax: 0
[3]; 5XCmax
  Swelling 5XCmax: 0
[3]; 10XCmax
  Swelling 10XCmax: 0
[3]; 20XCmax
  Swelling 20XCmax: 0
[3]; 30XCmax
  Swelling 30XCmax: 0
[3]; 50XCmax
  Swelling 50XCmax: 0
[3]; 100XCmax
  Swelling 100XCmax: 0
[4]; 1XCmax
  State 3 respiration driven by glutamate/malate at 1XCmax: 0
  State 3 respiration driven by succinate at 1XCmax: 0
  State 4 respiration driven by glutamate/malate at 1XCmax: 0
  State 4 respiration driven by succinate at 1XCmax: 0
[4]; 2.5XCmax
  State 3 respiration driven by glutamate/malate at 2.5XCmax: 0
  State 3 respiration driven by succinate at 2.5XCmax: 0
  State 4 respiration driven by glutamate/malate at 2.5XCmax: 0
  State 4 respiration driven by succinate at 2.5XCmax: 0
[4]; 5XCmax
  State 3 respiration driven by glutamate/malate at 5XCmax: 0
  State 3 respiration driven by succinate at 5XCmax: 0
  State 4 respiration driven by glutamate/malate at 5XCmax: 0
  State 4 respiration driven by succinate at 5XCmax: 0
[4]; 10XCmax
  State 3 respiration driven by glutamate/malate at 10XCmax: 0
  State 3 respiration driven by succinate at 10XCmax: 0
  State 4 respiration driven by glutamate/malate at 10XCmax: 0
  State 4 respiration driven by succinate at 10XCmax: 0
[4]; 20XCmax
  State 3 respiration driven by glutamate/malate at 20XCmax: 0
  State 3 respiration driven by succinate at 20XCmax: 0
  State 4 respiration driven by glutamate/malate at 20XCmax: 0
  State 4 respiration driven by succinate at 20XCmax: 0
[4]; 30XCmax
  State 3 respiration driven by glutamate/malate at 30XCmax: 0
  State 3 respiration driven by succinate at 30XCmax: 0
  State 4 respiration driven by glutamate/malate at 30XCmax: 0
  State 4 respiration driven by succinate at 30XCmax: 0
[4]; 50XCmax
  State 3 respiration driven by glutamate/malate at 50XCmax: 0
  State 3 respiration driven by succinate at 50XCmax: 0
  State 4 respiration driven by glutamate/malate at 50XCmax: 0
  State 4 respiration driven by succinate at 50XCmax: 0
[4]; 100XCmax
  State 3 respiration driven by glutamate/malate at 100XCmax: 0
  State 3 respiration driven by succinate at 100XCmax: 0
  State 4 respiration driven by glutamate/malate at 100XCmax: 0
  State 4 respiration driven by succinate at 100XCmax: 0
[5]; 1 = DILI positive, 0 = negative, ref product labeling
  DILI potential (based on labeling): 1
[5]; BBW: black box warning, W&P: Warnings and Precautions, ref product labeling
  Labeling for DILI: W&P: ALT↑
[5]; W&P warnings and precautions, BBW black box warnings, ref FDA product labeling
  labeling for DILI: W&P: ALT↑/monitoring
[5]; ref FDA product labeling
  DILI potential (based on labeling): 1
[6]; 1XCmax
  Cytochrome c release 1XCmax: 0
[6]; 2.5XCmax
  Cytochrome c release 2.5XCmax: 0
[6]; 5XCmax
  Cytochrome c release 5XCmax: 0
[6]; 10XCmax
  Cytochrome c release 10XCmax: 0
[6]; 20XCmax
  Cytochrome c release 20XCmax: 0
[6]; 30XCmax
  Cytochrome c release 30XCmax: 0
[6]; 50XCmax
  Cytochrome c release 50XCmax: 0
[6]; 100XCmax
  Cytochrome c release 100XCmax: 0
RCC IV
  RCC IV at 50XCmax: 0
[7]; 1XCmax
  ROS measured by CM-H2DCFDA at 1XCmax: 0
[7]; 2.5XCmax
  ROS measured by CM-H2DCFDA at 2.5XCmax: 0
[7]; 5XCmax
  ROS measured by CM-H2DCFDA at 5XCmax: 0
[7]; 10XCmax
  ROS measured by CM-H2DCFDA at 10XCmax: 0
[7]; 20XCmax
  ROS measured by CM-H2DCFDA at 20XCmax: 0
[7]; 30XCmax
  ROS measured by CM-H2DCFDA at 30XCmax: 0
[7]; 50XCmax
  ROS measured by CM-H2DCFDA at 50XCmax: 0
[7]; 100XCmax
  ROS measured by CM-H2DCFDA at 100XCmax: 0
